Laboratory results taken from ChEMBL document CHEMBL5316263, “Structure-Based Discovery of Selective Histone Deacetylase 8 Degraders with Potent Anticancer Activity” (J Med Chem, 2023).
Calls of active or inactive are those of the source. The calls are words filed in the database; no cut-off is given here.

What was measured:
[1] = tested on: A549; assay: Downregulation of ABHD6 in human A549 cells measured after 20 hrs by proteomic analysis; assay type: functional, cell-based
[2] = tested on: A549; assay: Antiproliferative activity against human A549 cells assessed as inhibition of cell growth measured after 72 hrs by CCK-8 method; assay type: functional, cell-based
[3] = tested on: A549; assay: Inhibition of DNA damage repair in human A549 cells assessed as decrease in gamma-H2AX level at 5 uM incubated for 24 hrs followed by irradiation for 4 hrs by immunofluorescence staining based analysis; assay type: functional, cell-based
[4] = tested on: A549; assay: Induction of apoptosis in human A549 cells assessed as early apoptotic cells at 5 uM incubated for 72 hrs by annexin V-FITC staining based flow cytometry (reference value: 0.099%); assay type: functional
[5] = tested on: HCT-116; assay: Induction of apoptosis in human HCT-116 cells assessed as necrotic cells at 5 uM incubated for 48 hrs by annexin V FITC and propidium iodide based flow cytometry relative to control; assay type: functional
[6] = tested on: A549; assay: Induction of apoptosis in human A549 cells assessed as downregulation of PCNA level at 1.25 to 20 uM measured after 48 hrs by Western blot analysis; assay type: functional, cell-based; conditions: dose 1.25-20 µM
[7] = tested on: A549; assay: Downregulation of IL6ST in human A549 cells measured after 20 hrs by proteomic analysis; assay type: functional, cell-based
[8] = tested on: HCT-116; assay: Inhibition of colony formation in human HCT-116 cells assessed as reduction in cell proliferation at 2.5 to 10 uM measured after 7 to 10 days with media replenishment along with compound for every 3 days by crystal violet staining based analysis; assay type: functional; conditions: dose 2.5-10 µM, time 7-10 day
[9] = tested on: A549; assay: Effect on FSTL4 gene in human A549 cells at 10 uM measured after 20 hrs by RNA sequencing analysis; assay type: functional, cell-based
[10] = target: T1, Protein cereblon/Histone deacetylase 8 (Homo sapiens) (UniProt Q9BY41+Q96SW2); assay: Protac activity at CRBN/HDAC8 in human A549 cells assessed as decrease in PGM1 expression at 0.1 to 10 uM under glucose deprivation condition by Western blot analysis; assay type: cell-based; conditions: dose 0.1-10 µM
T1 sequence (Q96SW2 whole entry, looked up): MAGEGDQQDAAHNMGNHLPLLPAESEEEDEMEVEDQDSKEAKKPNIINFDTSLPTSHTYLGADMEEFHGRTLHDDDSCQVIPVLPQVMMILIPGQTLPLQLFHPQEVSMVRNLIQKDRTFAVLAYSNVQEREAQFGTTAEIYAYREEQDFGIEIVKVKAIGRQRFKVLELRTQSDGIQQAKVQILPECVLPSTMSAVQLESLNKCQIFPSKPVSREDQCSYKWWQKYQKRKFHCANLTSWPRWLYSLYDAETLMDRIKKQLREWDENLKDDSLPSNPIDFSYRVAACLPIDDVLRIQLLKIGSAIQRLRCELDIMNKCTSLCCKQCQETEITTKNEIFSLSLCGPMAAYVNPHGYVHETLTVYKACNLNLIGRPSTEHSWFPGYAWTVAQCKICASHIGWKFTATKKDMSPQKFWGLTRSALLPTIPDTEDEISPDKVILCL
T1 sequence (Q9BY41 whole entry, looked up): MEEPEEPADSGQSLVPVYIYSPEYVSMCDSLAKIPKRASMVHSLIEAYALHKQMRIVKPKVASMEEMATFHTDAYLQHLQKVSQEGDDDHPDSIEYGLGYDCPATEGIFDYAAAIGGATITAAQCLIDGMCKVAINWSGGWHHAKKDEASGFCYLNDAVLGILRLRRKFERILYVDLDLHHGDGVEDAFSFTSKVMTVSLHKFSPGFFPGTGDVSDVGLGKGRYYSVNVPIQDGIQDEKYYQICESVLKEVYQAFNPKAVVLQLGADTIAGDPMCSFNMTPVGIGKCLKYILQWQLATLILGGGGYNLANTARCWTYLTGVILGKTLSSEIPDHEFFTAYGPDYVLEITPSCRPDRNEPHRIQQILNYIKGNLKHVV

[11] = tested on: HCT-116; assay: Inhibition of HDAC8 foci formation in human HCT-116 cells measured after 20 hrs by DAPI staining based immunofluorescence assay; assay type: functional, cell-based; conditions: dose 0.5-8 µM
[12] = tested on: A549; assay: Synergistic antiproliferative activity against human A549 cells assessed as combination index measured after 72 hrs under irradiation by CCK-8 method; assay type: functional
[13] = tested on: A549; assay: Induction of apoptosis in human A549 cells assessed as late apoptotic cells at 5 uM by annexin V-FITC staining based flow cytometry (reference value: 0.00%); assay type: functional
[14] = tested on: A549; assay: Antiproliferative activity against human A549 cells assessed as inhibition of cell growth measured after 72 hrs under irradiation by CCK-8 method; assay type: functional, cell-based; conditions: A549, light or radiation study
[15] = target: T1, Protein cereblon/Histone deacetylase 8 (Homo sapiens); assay: Protac activity at CRBN/HDAC8 in human A549 cells assessed as reduction in HDAC8 protein levels at 10 uM measured after 18 hrs by Western blot analysis relative to control; assay type: cell-based; set-up: scale not given: the % may be the effect or the level left
[16] = tested on: A549; assay: Effect on CYP1B1 gene in human A549 cells at 10 uM measured after 20 hrs by RNA sequencing analysis; assay type: functional, cell-based
[17] = target: T1, Protein cereblon/Histone deacetylase 8 (Homo sapiens); assay: Protac activity at CRBN/HDAC8 in human A549 cells assessed as reduction in HDAC8 protein level by Western blot analysis; assay type: cell-based; conditions: dose 0.2-10 µM
[18] = target: Protein cereblon/Histone deacetylase 9 (Homo sapiens) (UniProt Q9UKV0+Q96SW2); assay: Protac activity at CRBN/HDAC9 in human A549 cells assessed as reduction in HDAC9 protein level at 0.1 to 10 uM by Western blot analysis; assay type: cell-based; conditions: dose 0.1-10 µM
Chain of Protein cereblon/Histone deacetylase 9 (Homo sapiens) (Q96SW2 whole entry, looked up): as the sequence (Q96SW2 whole entry, looked up) above
Chain of Protein cereblon/Histone deacetylase 9 (Homo sapiens) (Q9UKV0 whole entry, looked up): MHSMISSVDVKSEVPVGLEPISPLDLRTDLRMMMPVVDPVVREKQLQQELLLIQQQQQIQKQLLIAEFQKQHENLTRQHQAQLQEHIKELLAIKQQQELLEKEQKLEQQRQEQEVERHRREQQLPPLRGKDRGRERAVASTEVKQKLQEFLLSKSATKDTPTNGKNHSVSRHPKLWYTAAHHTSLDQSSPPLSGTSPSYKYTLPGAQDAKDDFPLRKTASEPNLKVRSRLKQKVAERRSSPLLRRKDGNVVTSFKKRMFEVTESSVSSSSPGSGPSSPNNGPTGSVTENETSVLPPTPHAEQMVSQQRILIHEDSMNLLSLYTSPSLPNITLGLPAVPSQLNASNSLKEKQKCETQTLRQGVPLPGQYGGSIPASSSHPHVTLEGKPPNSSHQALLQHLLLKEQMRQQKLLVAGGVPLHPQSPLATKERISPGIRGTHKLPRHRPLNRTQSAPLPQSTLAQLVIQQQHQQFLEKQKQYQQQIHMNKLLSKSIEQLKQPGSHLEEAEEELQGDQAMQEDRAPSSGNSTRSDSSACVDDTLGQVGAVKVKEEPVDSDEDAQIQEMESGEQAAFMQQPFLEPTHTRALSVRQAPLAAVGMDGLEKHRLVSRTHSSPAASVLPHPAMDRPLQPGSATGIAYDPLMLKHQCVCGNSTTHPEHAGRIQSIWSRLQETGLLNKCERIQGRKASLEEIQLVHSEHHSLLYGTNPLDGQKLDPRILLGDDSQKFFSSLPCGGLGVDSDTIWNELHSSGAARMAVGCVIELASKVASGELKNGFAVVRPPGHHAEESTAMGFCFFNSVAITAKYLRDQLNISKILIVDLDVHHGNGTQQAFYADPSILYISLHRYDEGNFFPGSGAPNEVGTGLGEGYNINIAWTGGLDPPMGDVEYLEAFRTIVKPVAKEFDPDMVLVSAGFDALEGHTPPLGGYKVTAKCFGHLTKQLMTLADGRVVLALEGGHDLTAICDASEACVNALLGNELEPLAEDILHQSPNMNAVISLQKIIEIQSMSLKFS

[19] = tested on: A549; assay: Induction of apoptosis in human A549 cells assessed as necrotic cells at 20 uM incubated for 72 hrs by annexin V-FITC staining based flow cytometry relative to control; assay type: functional
[20] = tested on: A549; assay: Induction of apoptosis in human A549 cells assessed as late apoptotic cells at 5 uM incubated for 72 hrs by annexin V-FITC staining based flow cytometry (reference value: 0.048%); assay type: functional
[21] = tested on: A549; assay: Effect on DKK1 gene in human A549 cells at 10 uM measured after 20 hrs by RNA sequencing analysis; assay type: functional, cell-based
[22] = tested on: A549; assay: Inhibition of colony formation in human A549 cells assessed as reduction in cell proliferation at 2.5 to 10 uM measured after 7 to 10 days with media replenishment along with compound for every 3 days by crystal violet staining based analysis; assay type: functional; conditions: dose 2.5-10 µM, time 7-10 day
[23] = target: T1, Protein cereblon/Histone deacetylase 8 (Homo sapiens); assay: Protac activity at CRBN/HDAC8 in human A549 cells at 10 uM measured preincubated for 20 hrs followed by drug washout and measured after 48 hrs by Western blot analysis; assay type: cell-based
[24] = tested on: A549; assay: Inhibition of colony formation in SiRNA mediated HDAC8 knockdown human A549 cells assessed as decrease in cell proliferation at 2.5 to 10 uM measured after 7 to 10 days with media replenishment along with compound for every 3 days by crystal violet staining based analysis; assay type: functional; conditions: dose 2.5-10 µM, time 7-10 day
[25] = tested on: A549; assay: Induction of apoptosis in human A549 cells assessed as upregulation of cleaved caspase-3 level measured after 48 hrs by Western blot analysis; assay type: functional, cell-based; conditions: dose 1.25-20 µM
[26] = target: T1, Protein cereblon/Histone deacetylase 8 (Homo sapiens); assay: Protac activity at CRBN/HDAC8 in human A549 cells assessed as degradation of HDAC8 at 200 nM measured after 20 hrs by Western blot analysis relative to control; assay type: cell-based
[27] = tested on: A549; assay: Induction of apoptosis in human A549 cells assessed as viable cells at 10 uM incubated for 72 hrs by annexin V-FITC staining based flow cytometry (reference value: 99.9%); assay type: functional; conditions: read-out: Activity
[28] = tested on: A549; assay: Induction of apoptosis in human A549 cells assessed as viable cells at 5 uM by annexin V-FITC staining based flow cytometry (reference value: 100%); assay type: functional; conditions: read-out: Activity
[29] = tested on: A549; assay: Induction of apoptosis in human A549 cells assessed as late apoptotic cells at 5 uM incubated with compound followed by irradiation by annexin V-FITC staining based flow cytometry (reference value: 3.07%); assay type: functional
[30] = tested on: A549; assay: Induction of apoptosis in human A549 cells assessed as late apoptotic cells at 1.25 uM incubated for 72 hrs by annexin V-FITC staining based flow cytometry (reference value: 0.048%); assay type: functional
[31] = tested on: A549; assay: Downregulation of HSPA6 in human A549 cells measured after 20 hrs by proteomic analysis; assay type: functional, cell-based
[32] = tested on: A549; assay: Induction of apoptosis in human A549 cells assessed as upregulation of cleaved PARP level measured after 48 hrs by Western blot analysis; assay type: functional, cell-based; conditions: dose 1.25-20 µM
[33] = tested on: A549; assay: Induction of apoptosis in human A549 cells assessed as necrotic cells at 2.5 uM incubated for 72 hrs by annexin V-FITC staining based flow cytometry relative to control; assay type: functional
[34] = target: Protein cereblon/Histone deacetylase 3 (Homo sapiens) (UniProt O15379+Q96SW2); assay: Protac activity at CRBN/HDAC3 in human A549 cells assessed as reduction in HDAC3 protein level at 0.1 to 10 uM by Western blot analysis; assay type: cell-based; conditions: dose 0.1-10 µM
Chain of Protein cereblon/Histone deacetylase 3 (Homo sapiens) (O15379 whole entry, looked up): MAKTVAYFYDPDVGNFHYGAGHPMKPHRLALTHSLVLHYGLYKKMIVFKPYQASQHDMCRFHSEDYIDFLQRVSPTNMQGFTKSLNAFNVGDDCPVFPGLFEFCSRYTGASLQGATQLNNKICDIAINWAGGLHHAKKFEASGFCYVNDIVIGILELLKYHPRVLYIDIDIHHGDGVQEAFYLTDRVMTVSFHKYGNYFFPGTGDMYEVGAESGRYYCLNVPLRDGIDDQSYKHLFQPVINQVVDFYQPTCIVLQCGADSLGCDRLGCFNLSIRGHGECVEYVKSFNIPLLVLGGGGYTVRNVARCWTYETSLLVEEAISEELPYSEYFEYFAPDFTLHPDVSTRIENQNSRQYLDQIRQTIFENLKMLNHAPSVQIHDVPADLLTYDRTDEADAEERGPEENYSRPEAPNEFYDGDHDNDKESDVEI
Chain of Protein cereblon/Histone deacetylase 3 (Homo sapiens) (Q96SW2 whole entry, looked up): as the sequence (Q96SW2 whole entry, looked up) above

O=C1CCC(N2C(=O)c3cccc(NCc4cn(CCOCCOc5ccc(Cn6ccc7ccc(C(=O)NO)cc76)cc5)nn4)c3C2=O)C(=O)N1 (stereo not given)
Activity [1]: Active | IC50 ([2]; A549, 72 h): 9.55 µM | Activity ([2]; dose <= 1.5 µM): Dose-Dependent Effect | inhibition [3]: Active | Activity [4]: 21.6% | Activity [5]: 10% | Activity [6]: Active | Activity [7]: Active | inhibition [8]: Active | Activity [9]: Active | Activity [10]: Active | inhibition [11]: Dose-Dependent Effect | CI [12]: 0.65 | Activity [13]: 6.19% | IC50 [14]: 6.04 µM | Activity [15]: 100% | Activity [16]: Active | Activity [17]: Dose-Dependent Effect | Activity [18]: inactive | Activity [19]: 0% | Activity [20]: 21.8% | Activity [21]: Active | inhibition [22]: Active | Activity [23]: inactive | inhibition [24]: Active | Activity [25]: Dose-Dependent Effect | Activity [26]: 39.7% | viability at 10 µM [27]: 42.7% | viability at 5 µM [28]: 77% | Activity [29]: 0.3% | Activity [30]: 7.4% | Activity [31]: Active | Activity [32]: Dose-Dependent Effect | Activity [33]: 0.57% | Activity [34]: inactive
